This note sets out measurements from patent US6495683B2, “4-oxo-4,7-dihydro-thieno[2,3-b]pyridine-5-carboxamides as antiviral agents” (Pharmacia and Upjohn Company, priority 1999, dated 2002).

What is called melting point is the temperature, or range, at which the solid turns liquid. The term IC50 denotes the concentration that gives 50% inhibition.

Molecules are shown by their SMILES. Where a name gives a salt, the structure may show the parent alone. Read-outs that look alike come from different tables or passages of the source.

The target in data set [1] is T1, HCMV polymerase (Human cytomegalovirus, UniProt P08546).
T1 construct: made in house; host or cells: recombinant baculovirus-infected SF-9 cells
T1 sequence (P08546 whole entry): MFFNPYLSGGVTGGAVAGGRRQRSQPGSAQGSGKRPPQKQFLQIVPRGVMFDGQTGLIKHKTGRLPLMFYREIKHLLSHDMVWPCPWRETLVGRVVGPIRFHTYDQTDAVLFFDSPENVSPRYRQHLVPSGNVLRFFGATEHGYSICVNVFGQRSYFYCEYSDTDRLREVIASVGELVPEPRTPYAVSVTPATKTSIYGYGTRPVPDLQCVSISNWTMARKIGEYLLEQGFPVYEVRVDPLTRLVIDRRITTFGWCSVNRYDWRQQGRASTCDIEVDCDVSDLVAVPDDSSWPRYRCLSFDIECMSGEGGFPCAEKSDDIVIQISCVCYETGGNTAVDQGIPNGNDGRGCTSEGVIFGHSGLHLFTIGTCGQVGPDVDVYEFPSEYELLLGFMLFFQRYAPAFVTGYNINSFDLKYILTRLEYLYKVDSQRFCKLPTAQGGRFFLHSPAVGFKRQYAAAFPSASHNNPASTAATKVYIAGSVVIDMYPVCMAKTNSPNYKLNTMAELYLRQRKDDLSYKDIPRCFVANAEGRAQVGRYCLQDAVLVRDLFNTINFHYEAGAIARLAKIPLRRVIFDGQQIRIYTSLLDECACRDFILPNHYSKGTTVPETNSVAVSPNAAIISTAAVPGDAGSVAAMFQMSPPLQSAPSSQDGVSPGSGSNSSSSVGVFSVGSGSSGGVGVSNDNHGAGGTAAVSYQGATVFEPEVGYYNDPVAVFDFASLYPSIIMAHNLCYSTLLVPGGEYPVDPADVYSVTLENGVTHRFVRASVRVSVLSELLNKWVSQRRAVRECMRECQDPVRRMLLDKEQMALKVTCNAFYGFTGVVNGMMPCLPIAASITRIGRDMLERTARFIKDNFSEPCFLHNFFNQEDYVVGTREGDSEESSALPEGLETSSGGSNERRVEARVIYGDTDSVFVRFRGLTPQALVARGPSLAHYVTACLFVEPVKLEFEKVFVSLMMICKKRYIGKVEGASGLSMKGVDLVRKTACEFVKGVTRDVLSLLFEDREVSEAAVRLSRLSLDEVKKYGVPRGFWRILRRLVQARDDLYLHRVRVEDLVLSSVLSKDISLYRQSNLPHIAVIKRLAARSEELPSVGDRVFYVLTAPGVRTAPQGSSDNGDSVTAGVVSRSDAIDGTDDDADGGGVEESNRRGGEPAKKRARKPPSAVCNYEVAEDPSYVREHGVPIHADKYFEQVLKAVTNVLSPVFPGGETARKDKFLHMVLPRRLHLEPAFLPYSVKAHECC
Kind of data set: biochemical. Here is the method:
The HCMV polymerase assay is performed using a scintillation proximity assay (SPA) as described in several references, such as N. D. Cook, et al., Pharmaceutical Manufacturing International, pages 49-53 (1992); K. Takeuchi, Laboratory Practice, September issue (1992); U.S. Pat. No. 4,568,649 (1986); which are incorporated by reference herein. Reactions are performed in 96-well plates. The assay is conducted in 100 μl volume with 5.4 mM HEPE (pH 7.5), 11.7 mM KCl, 4.5 mM MgCl2, 0.36 mg/ml BSA, and 90 nM ^3H-dTTP. Assays are run with and without CHAPS, (3-[(3-cholamidopropyl)-dimethylammonio]-1-propane-sulfonate) at a final concentration of 2 mM. HCMV polymerase is diluted in enzyme dilution buffer containing 50% glycerol, 250 mM NaCl, 10 mM HEPES (pH 7.5), 100 μg/ml BSA, and 0.01% sodium azide. The HCMV polymerase, which is expressed in recombinant baculovirus-infected SF-9 cells and purified according to literature procedures, is added at 10% (or 10 μl) of the final reaction volume, i.e., 100 μl. Compounds are diluted in 50% DMSO and 10 μl are added to each well. Control wells contain an equivalent concentration of DMSO. Unless noted otherwise, reactions are initiated via the addition of 6 nM biotinylated poly(dA)-oligo(dT) template/primer to reaction mixtures containing the enzyme, substrate, and compounds of interest. Plates are incubated in a 25 C or 37 C H2O bath and terminated via the addition of 40 μl/reaction of 0.5 M EDTA (pH 8) per well. Reactions are terminated within the time-frame during which substrate incorporation is linear and varied depending upon the enzyme and conditions used, i.e., 30 min. for HCMV polymerase. Ten μl of streptavidin-SPA beads (20 mg/ml in PBS/10% glycerol) are added following termination of the reaction. Plates are incubated 10 min. at 37 ° C., then equilibrated to room temperature, and counted on a Packard Topcount. Linear regressions are performed and IC50's are calculated using computer software.
A modified version of the above HCMV polymerase assay is performed as described above, but with the following changes: Compounds are diluted in 100% DMSO until final dilution into assay buffer. In the previous assay, compounds are diluted in 50% DMSO. 4.5 mM dithiothreotol (DTT) is added to the polymerase buffer.

[2] abbreviates: modified SPA assay: compounds diluted in 100% DMSO, 4.5 mM DTT in polymerase buffer, read-out: polymerase IC50 (μM) HCMV.

In turn, `O=C(NCc1ccc(Cl)cc1)c1cn(CCO)c2sc(CCCO)cc2c1=O` [Example 21, N-(4-Chlorobenzyl)-7-(2-hydroxyethyl)-2-(3-hydroxypropyl)4-oxo-4,7-dihydrothieno[2,3-b]pyridine-5-carboxamide] had a melting point of 174 to 178 °C. The IC50 in data set [1] (setting [2]) was less than 0.78 µM.

As to `O=C(NCc1ccc(Cl)cc1)c1cnc2sc(C#CCCO)cc2c1O` [Example 7, N-(4-Chlorobenzyl)-4-hydroxy-2-(4-hydroxy-1-butynyl)thieno[2,3-b]pyridine-5-carboxamide], the melting point is 242 to 246 °C. Moreover, the IC50 in data set [1] (setting [2]) is 8 µM.

Compound `O=C(NCc1ccc(Cl)cc1)c1cnc2sc(S(=O)(=O)N3CCOCC3)cc2c1O` [Example 3, N-(4-Chlorobenzyl)-4-hydroxy-2-(4-morpholinylsulfonyl)-thieno[2,3-b]pyridine-5-carboxamide] registered a melting point of more than 300 °C. Also, the IC50 in data set [1] (setting [2]) was determined as 15.9 µM.

In turn, `CCn1cc(C(=O)NCc2ccc(Cl)cc2)c(=O)c2cc(C#CCOC(=O)CCC(=O)O)sc21` [Example 29, 4-{[3-(5-{[(4-Chlorobenzyl)amino]carbonyl}-7-ethyl-4-oxo-4,7-dihydrothieno[2,3-b]pyridin-2-yl)-2-propynyl]oxy}-4-oxobutanoic Acid] gave a melting point of 180 to 182 °C. Also, the IC50 in data set [1] (setting [2]) worked out at 6.5 µM.

As to `Cn1cc(C(=O)NCc2ccc(Cl)cc2)c(=O)c2cc(C(=O)N3CCOCC3)sc21` [Example 48, N-(4-Chlorobenzyl)-7-methyl-2-(4-morpholinyl-carbonyl)-4 dothieno[2,3-b]pyridine-5-carboxamide], the melting point was 244 to 245 °C (dec.). Also, the IC50 in data set [1] (setting [2]) was found to be 19 µM.

`CCn1cc(C(=O)NCc2ccc(Cl)cc2)c(=O)c2cc(C#CCOC(=O)C(N)C(C)C)sc21` (centres unmarked) (as salt: hydrochloride) [Example 31, 3-(5-{[(4-Chlorobenzyl)amino]carbonyl}-7-ethyl-4-oxo-4,7-dihydrothieno[2,3-b]pyridin-2-yl)-2-propynyl 2-Amino-3-methylbutanoate Hydrochloride] yielded a melting point of 171 to 172 °C.

Take `Cn1cc(C(=O)NCc2ccc(Cl)cc2)c(=O)c2cc(C#CCO)sc21` [Example 24, N-(4-Chlorobenzyl)-2-(3-hydroxy-1-propynyl)-7-methyl-4-oxo-4,7-dihydrothieno[2,3-b]pyridine-5-carboxamide]: the melting point lay within 206 to 208 °C. Besides, the half-maximal inhibitory concentration (IC50) in data set [1] (setting [2]) was found to be 1 µM.

For the compound `O=C(NCc1ccc(Cl)cc1)c1cn(Cc2ccncc2)c2sc(CN3CCOCC3)cc2c1=O` [Example 55, N-(4-Chlorobenzyl)-2-(4-morpholinylmethyl)-4-oxo-7-(4-pyridinylmethyl)-4,7-dihydrothieno[2,3-b]pyridine-5-carboxamide], the melting point is 208 to 210 °C (dec.). Further, in data set [1] (setting [2]), the IC50 was 5 µM.

`O=C(NCc1ccc(Cl)cc1)c1cn(CCN2CCCC2)c2sc(CN3CCOCC3)cc2c1=O` [Example 53, N-(4-Chlorobenzyl)-2-(4-morpholinylmethyl)-4-oxo-7-[2-(1-pyrrolidinyl)ethyl]-4,7-dihydrothieno[2,3-b]pyridine-5-carboxamide]: the melting point was in the range of 178 to 180 °C. Also, the 50% inhibitory concentration (IC50) in data set [1] (setting [2]) worked out at 4 µM.

Take `Cn1cc(C(=O)NCc2ccc(F)cc2)c(=O)c2cc(CN3CCOCC3)sc21` [Example 45, N-(4-Fluorobenzyl)-7-methyl-2-(4-morpholinylmethyl)-4-oxo-4,7-dihydrothieno[2,3-b]pyridine-5-carboxamide]: the melting point was in the range of 214 to 216 °C. Besides, the IC50 in data set [1] (setting [2]) came out at 2.6 µM.

In turn, `CC(C)n1cc(C(=O)NCc2ccc(Cl)cc2)c(=O)c2cc(C#CCO)sc21` [Example 27, N-(4-Chlorobenzyl)-2-(3-hydroxy-1-propynyl)-7-isopropyl-4-oxo-4,7-dihydrothieno[2,3-b]pyridine-5-carboxamide] gave a melting point of 190 to 196 °C. Further, the IC50 in data set [1] (setting [2]) is 4.2 µM.

As to `O=C(NCc1ccc(Cl)cc1)c1cnc2sc(I)cc2c1O` [Example 2, N-(4-Chlorobenzyl)-4-hydroxy-2-iodothieno[2,3-b]pyridine-5-carboxamide], the melting point is 231 to 232 °C (dec.). The 50% inhibitory concentration (IC50) in data set [1] (setting [2]) was found to be 6.3 µM.

In turn, `Cn1cc(C(=O)NCc2ccc(Cl)cc2)c(=O)c2cc(CO)sc21` [Example 35, N-(4-Chlorobenzyl)-2-(hydroxymethyl)-7-methyl-4-oxo-4,7-dihydrothieno[2,3-b]pyridine-5-carboxamide] registered a melting point of 222 to 225 °C. The IC50 in data set [1] (setting [2]) is 18.5 µM.

Consider `O=C(NCc1ccc(Cl)cc1)c1cn(Cc2ccccc2)c2sc(CN3CCOCC3)cc2c1=O` [Example 49, 7-Benzyl-N-(4-chlorobenzyl)-2-(4-morpholinylmethyl)-4-oxo-4,7-dihydrothieno[2,3-b]pyridine-5-carboxamide], for which the melting point lay in the range of 225 to 226.5 °C. Also, in data set [1] (setting [2]), the half-maximal inhibitory concentration (IC50) amounted to 3.2 µM.

For `CCn1cc(C(=O)NCc2ccc(Cl)cc2)c(=O)c2cc(C#CCOC(=O)CN3CCOCC3)sc21` [Example 30, 3-(5-{[(4-Chlorobenzyl)amino]carbonyl}-7-ethyl-4-oxo-4,7-dihydrothieno[2,3-b]pyridin-2-yl)-2-propynyl 2-(4-Morpholinyl)acetate], the melting point was in the range of 168 to 170 °C. Moreover, the IC50 in data set [1] (setting [2]) was determined as 28.2 µM.

`CCn1cc(C(=O)NCc2ccc(Cl)cc2)c(=O)c2ccsc21` [Example 12, N-(4-Chlorobenzyl)-7-ethyl-4-oxo-4,7-dihydrothieno[2,3-b]pyridine-5-carboxamide] registered a melting point of 183 to 184 °C. Further, the IC50 in data set [1] (setting [2]) amounted to 11 µM.

In turn, `CCn1cc(C(=O)NCc2ccc(Cl)cc2)c(=O)c2cc(I)sc21` [Example 13, N-(4-Chlorobenzyl)-7-ethyl-2-iodo-4-oxo-4,7-dihydrothieno[2,3-b]pyridine-5-carboxamide] came in with a melting point of 214 to 218 °C. Further, the IC50 in data set [1] (setting [2]) was 9 µM.

For `CN(Cc1cc2c(=O)c(C(=O)NCc3ccc(Cl)cc3)cn(C)c2s1)CC(O)c1ccc(O)cc1` (centres unmarked) [Example 39, N-(4-Chlorohenzyl)-2-(((2-hydroxy-2-(4-hydroxyphenyl)ethyl)(methyl)amino)methyl)-7-methyl-4-oxo-4,7-dihydrothieno[2,3-b]pyridine-5-carboxamide], the melting point came to 187 °C. The half-maximal inhibitory concentration (IC50) in data set [1] (setting [2]) is less than 0.31 µM.

On to `O=C(O)Cn1cc(C(=O)NCc2ccc(Cl)cc2)c(=O)c2cc(C#CCO)sc21` [Example 19, 2-[5-{[(4-Chlorobenzyl)amino]carbonyl}-2-(3-hydroxy-1-propynyl)4-oxothieno[2,3-b]pyridin-7(4H)-yl]acetic Acid], for which the melting point is 230 to 235 °C (dec.). Moreover, the IC50 in data set [1] (setting [2]) is 0.86 µM.

For `N#Cc1cc2c(O)c(C(=O)NCc3ccc(Cl)cc3)cnc2s1` [Example 9, N-(4-Chlorobenzyl)-2-cyano-4-hydroxythieno[2,3-b]pyridine-5-carboxamide], the 50% inhibitory concentration (IC50) in data set [1] (setting [2]) turned out to be 12.5 µM.

In turn, `O=C(NCc1ccc(Cl)cc1)c1cn(Cc2cccc(F)c2)c2sc(CN3CCOCC3)cc2c1=O` [Example 50, N-(4-Chlorobenzyl)-7-(3-fluorobenzyl)-2-(4-morpholinyl-methyl)-4-oxof47-dihydrothieno[2,3-b]pyridine-5-carboxamide] came in with a melting point of 214 to 215 °C. Also, the IC50 in data set [1] (setting [2]) was determined as 3.8 µM.

Turning to `O=C(NCc1ccc(Cl)cc1)c1cnc2sc(CN3CCOCC3)cc2c1O` [Example 41, N-(4-Chlorobenzyl)-4-hydroxy-2-(4-morpholinylmethyl)-thieno[2,3-b]pyridine-5-carboxamide], the melting point lay in the range of 193 to 195 °C. The half-inhibitory concentration (IC50) in data set [1] turned out to be 3.4 µM.

For `CCN(CC)CCn1cc(C(=O)NCc2ccc(Cl)cc2)c(=O)c2cc(C#CCO)sc21` (as salt: hydrochloride) [Example 18, N-(4-Chlorobenzyl)-7-[2-(diethylamino)ethyl]-2-(3hydroxy-1-propynyl)4-oxo4,7-dihydrothieno[2,3-b]pyridine-5-carboxamide hydrochloride], the melting point is 212 to 214 °C (dec.).

For the compound `CCn1cc(C(=O)NCc2ccc(Cl)cc2)c(=O)c2cc(C#CCOC(=O)C(N)C(C)C)sc21` (centres unmarked) [Example 31, 3-(5-{[(4-Chlorobenzyl)amino]carbonyl}-7-ethyl-4-oxo-4,7-dihydrothieno[2,3-b]pyridin-2-yl)-2-propynyl 2-Amino-3-methylbutanoate Hydrochloride], the IC50 in data set [1] (setting [2]) is 15.4 µM.
